Residues, ends and D or L forms follow the SMILES beside them. *: point of attachment. Cbz = O=C(OCc1ccccc1)*; CH2F = FC*
Columns and labels:
Format in all cases: cell-based, Schizosaccharomyces pombe
DKO cells [1] = assay: Production of reactive oxygen species (dihydroethidium); conditions: for ROS production: incubation of log phase cells
Method: Production of reactive oxygen species: ROS were detected by dihydroethidium (Sigma), which was used at 5 μg per ml cell culture. After incubation for 10 minutes, cells were viewed under a Leica DMLB microscope through a Texas Red filter. The free radical spin trap reagent 3,3,5,5,-tetramethyl-pyrroline N-oxide (TMPO) was used at 125 μg per ml cell culture. Cells were pretreated with […] for 2 hours before lipids were added.

[2] = system: DKO strain (S. pombe Δplh1 Δdga1 double deletion); assay: Detection of apoptotic markers: DAPI staining and TUNEL (DNA fragmentation); conditions: for cells undergoing apoptosis in the presence of the inhibitor / rescue of palmitate-induced apoptosis: double deletion cells treated with 0.8 mM of palmitate; for apoptosis induced by fatty acid: DKO cells, early log phase, two hours (FIGS. 14-16)
Method: (§1) DAG, fatty acid and ceramide treatment: For fatty acid treatment, palmitic acid and oleic acid were dissolved in chloroform as 500 mM stock. Each microliter of fatty acids was dissolved in 12.5 μl tyloxapol-enthanol (1:1) and added into growth medium. Wild type and DKO strains were grown to early log phase and then incubated in medium containing different concentrations (0.5 mM, 0.8 mM and 1 mM) of palmitic acid or oleic acid for 0-3 hours. Control groups were cultured in the medium added with the same volume of tyloxapol-enthanol without fatty acids. After incubation, cells were analyzed for viability and DNA fragmentation. DiC8 DAG and ceramide were dissolved in DMSO. The working concentrations for DAG was 0.1 mM, 0.2 mM or 0.3 mM, while for ceramide was 10 μM or 20 μM (23, 24).
Detection of apoptotic markers: All assays in this section were performed as previously described (26).
(§2) 4′,6-diamidino-2-phenylindole (DAPI) staining: Cells were fixed with 3.7% formaldehyde for 10 minutes, washed once with PBS containing 4% NP40 and twice with PBS, and then stained with DAPI. Cells were viewed using a Leica DMLB microscope.
(§3) Terminal deoxynucleotidyl transferase(TdT)-mediated dUTP nick-end labeling (TUNEL): Cells were fixed with 3.7% formaldehyde for 1 hr, digested with zymolase, washed with PBS, incubated in a permeabilization solution (0.1% Triton in 0.1% sodium citrate) for 2 minutes on ice, washed twice with PBS and incubated with 50 μl TUNEL mixtures for 1 hour at 37° C. Cells were washed with PBS twice and were viewed using a Leica DMLB microscope.

[3] = system: DKO strain (S. pombe Δplh1 Δdga1 double deletion); assay: Cell viability assay (colony forming) after treatment
Method: (§4) Cell viability assay: For cell viability at different growth phases, cells were grown to various densities in YES (determined by OD595). The number of viable cells was obtained after cells were diluted properly in distilled water and plated in triplicates on YES agar. Colonies were scored after 3 days of incubation at 30° C. For cell viability after various treatments, cells were grown to early log phase (OD595=0.1) before lipids or other chemicals were added. After treatment, cells were collected and viability was analyzed as described above.
as §1

[4] = system: WT and DKO S. pombe cells; assay: DHS, PHS or C2-ceramide treatment: viability and DNA fragmentation; conditions: various concentrations, 0-3 hours
Method: as §4, §1, §2, §3

DKO cells [5] = assay: Diacylglycerol kinase assay of cellular DAG level
Method: (§5) Diacylglycerol kinase assay: The assay was conducted as described in the Biotrak assay reagents system (Amersham Biosciences). Wild type and DKO yeast cells were grown in YES medium to mid log phase and then treated with medium containing 0.8 mM palmitate or oleate. Cells were collected at different time points (0, 30, 60 and 120 minutes). DAG was extracted with other lipids and quantified through a phosphorylation reaction catalyzed by a bacterial DAG kinase.

wild type cells = assay: Diacylglycerol kinase assay of cellular DAG level, wild type; conditions: after 2-hour incubation with palmitate, from 1
Method: as §5

[6] = mutant cells pretreated with TMPO (125 μg/ml) for 2 hours, then 1 mM palmitate for 2 hours
[7] = caspase inhibitor added, data not shown
[8] = DKO strain, early log phase cells, various concentrations of diC8 DAG, 0-3 hours

With CC1(C)C=[N+]([O-])C(C)(C)C1 [TMPO, 3,3,5,5,-tetramethyl-pyrroline N-oxide] as the molecule, how does the “scavenging of ROS” value (DKO cells [1]; [6]) read?
Its value is “could effectively scavenge ROS”.

What about the “prevention of DNA fragmentation” value [2, 6] of the same molecule?
The value was “prevent DNA fragmentation”.

What about the “prevention of cell death” value [3, 6] of the same molecule?
The value was “prevent DNA fragmentation (FIG. 24) and cell death”.

How did the DNA fragmentation [4] turn out when CCCCCCCCCCCCCCC[C@@H](O)[C@@H](N)CO [DHS, dihydrosphingosine] was run?
The DNA fragmentation was “no DNA fragmentation was observed”.

And the “killing of S. pombe cells” value [4]?
Its value is “could kill S. pombe cells at high concentrations”.

CCCCCCCCCCCCC/C=C/[C@@H](O)[C@H](CO)NC(C)=O [C2-ceramide, N-acetylsphigosine] was tested. Which DNA fragmentation [4] did it give?
The DNA fragmentation was “no DNA fragmentation was observed”.

What about the “killing of S. pombe cells” value [4] of the same molecule?
The value was “could kill S. pombe cells at high concentrations”.

Which “cells undergoing apoptosis in the presence of the inhibitor” value ([2]; data not shown) does the source give for CCCCCCC(=O)CCCCCC/C=C/C[C@@H](O)[C@H](O)[C@@](N)(CO)C(=O)O [myriocin] here?
The value was “more cells underwent apoptosis”.

What about the “rescue of palmitate-induced apoptosis” value ([2]; data not shown) of the same molecule?
The value was “no rescue of apoptosis was observed”.

What does the source list for COC(=O)C[C@H](NC(=O)[C@H](C)NC(=O)[C@@H](NC(=O)OCc1ccccc1)C(C)C)C(=O)CF [zVADfmk] (Cbz-Val-Ala-Asp(OMe)-CH2F)?
prevention of DNA fragmentation [2, 7]: failed to prevent cell death and DNA fragmentation; prevention of cell death [3, 7]: failed to prevent cell death

Which results are given for CCCCCCCC/C=C\CCCCCCCC(=O)O [oleate, oleic acid]?
ROS production (DKO cells [1]): induced dramatic ROS production; DAG level (DKO cells [5]; after 2-hour incubation with oleate, from 1): 2.5 nM/mg dry weight; apoptosis induced by fatty acid [2]: caused the DKO cells to undergo apoptosis

With CCCCCCCCCCCCCCCC(=O)O [palmitate, palmitic acid] as the molecule, how does the DAG level (wild type cells) read?
The DAG level was 1.5 nM/mg dry weight.

And the ROS production (DKO cells [1])?
Its ROS production is “induced dramatic ROS production”.

What about the DAG level (DKO cells [5]; after 2-hour incubation with 0.8 mM palmitate, 1 nmol/mg dry weight before addition) of the same molecule?
Its DAG level is 3.5 nmol/mg dry weight.

What about the “apoptosis induced by fatty acid” value [2] of the same molecule?
The value was “caused the DKO cells to undergo apoptosis”.

Which DNA fragmentation [4] does the source give for CCCCCCCCCCCCCC[C@@H](O)[C@@H](O)[C@@H](N)CO [PHS, phytosphingosine] here?
Its DNA fragmentation is “no DNA fragmentation was observed”.

And the “killing of S. pombe cells” value [4]?
The value was “could kill S. pombe cells at high concentrations”.

Which results are given for CCCC[C@@H](C)[C@@H](OC(=O)C[C@@H](CC(=O)O)C(=O)O)[C@H](C[C@@H](C)C[C@H](O)CCCC[C@@H](O)C[C@H](O)[C@H](C)N)OC(=O)C[C@@H](CC(=O)O)C(=O)O [fumonisin B1]?
cells undergoing apoptosis in the presence of the inhibitor ([2]; data not shown): more cells underwent apoptosis; rescue of palmitate-induced apoptosis ([2]; data not shown): no rescue of apoptosis was observed

For CCCCCCCC(=O)OC[C@H](CO)OC(=O)CCCCCCC [diC8 DAG, 1,2-dioctanoyl-sn-glycerol], which ROS production (DKO cells [1]) is on record?
Its ROS production is “induced dramatic ROS production”.

What about the “nuclear DNA fragmentation” value [2, 8] of the same molecule?
Its value is “prominent nuclear DNA fragmentation”.

And the “percentage of cells showing DNA fragmentation, dependence on time and concentration” value ([2]; DKO strain, up to 3 hours, up to 0.3 mM)?
Its value is “generally increases with time (up to 3 hours) and concentration”.

What about the cell death [3, 8] of the same molecule?
Its cell death is “cell death were observed in the DKO strain”.

Source: patent US7479374B2, “Triacylglycerol-deficient fission yeast and its uses” (priority 2003, dated 2009)
